What was measured:
Agropyrons repens = assay: Weed plant herbicidal activity, pre-emergence; assay type: in vivo; conditions: 20 g of active substance per hectare, visual scoring after 3 to 4 weeks
Description: (§1) 1. Weed plant herbicidal activity and crop plant tolerance, pre-emergence Seeds of monocot and dicot weed plants and of crop plants are placed in sandy loam soil in cardboard pots and are covered with soil. The compounds of the invention, formulated as wettable powders or emulsifiable concentrates, are then applied as an aqueous suspension or emulsion, respectively, in different dosages to the surface of the covering soil at an application rate of 600 to 800 l of water per ha (converted). Following treatment, the pots are placed in a greenhouse and kept under good growth conditions for the weeds. Visual scoring of the plant damage or emergence damage is made after the experimental plants have emerged, after an experimental period of 3 to 4 weeks, in comparison with untreated controls. […] At the same application rate this compound of the invention causes no damage to the crop plants Oryza sativa (rice) or Zea mays (maize).

Alopecurus myosuroides = assay: Weed plant herbicidal activity, pre-emergence; assay type: in vivo; conditions: 20 g of active substance per hectare, visual scoring after 3 to 4 weeks
Description: as §1

Amaranthus retroflexus = assay: Weed plant herbicidal activity, pre-emergence; assay type: in vivo; conditions: 20 g of active substance per hectare, visual scoring after 3 to 4 weeks
Description: as §1

Avena fatua = assay: Weed plant herbicidal activity, pre-emergence; assay type: in vivo; conditions: 20 g of active substance per hectare, visual scoring after 3 to 4 weeks
Description: as §1

Digitaria sanguinalis [1] = assay: Weed plant herbicidal activity, pre-emergence; assay type: in vivo; conditions: 20 g of active substance per hectare, visual scoring after 3 to 4 weeks
Description: as §1

Galium aparine = assay: Weed plant herbicidal activity, pre-emergence; assay type: in vivo; conditions: 20 g of active substance per hectare, visual scoring after 3 to 4 weeks
Description: as §1

Lolium multiflorum = assay: Weed plant herbicidal activity, pre-emergence; assay type: in vivo; conditions: 20 g of active substance per hectare, visual scoring after 3 to 4 weeks
Description: as §1

Setaria viridis = assay: Weed plant herbicidal activity, pre-emergence; assay type: in vivo; conditions: 20 g of active substance per hectare, visual scoring after 3 to 4 weeks
Description: as §1

Sorghum halepense = assay: Weed plant herbicidal activity, pre-emergence; assay type: in vivo; conditions: 20 g of active substance per hectare, visual scoring after 3 to 4 weeks
Description: as §1

Veronica persica [2] = assay: Weed plant herbicidal activity, pre-emergence; assay type: in vivo; conditions: 20 g of active substance per hectare, visual scoring after 3 to 4 weeks
Description: as §1

Oryza sativa (rice) [3] = assay: Crop plant tolerance, pre-emergence; assay type: in vivo; conditions: 20 g of active substance per hectare, 3 to 4 weeks
Description: as §1

Zea mays (maize) = assay: Crop plant tolerance, pre-emergence; assay type: in vivo; conditions: 20 g of active substance per hectare, 3 to 4 weeks
Description: as §1

Chenopodium album = assay: Weed plant herbicidal activity, post-emergence; assay type: in vivo; conditions: three-leaf stage, 80 g of active substance per hectare, scored after 3 to 4 weeks
Method: (§2) 2. Weed plant herbicidal activity and crop plant tolerance, post-emergence Seeds of monocot and dicot weed plants and of crop plants are placed in sandy loam in cardboard pots, covered with soil, and grown under good growth conditions in a greenhouse. Two to three weeks after sowing, the experimental plants are treated at the three-leaf stage. The compounds of the invention, formulated as wettable powders or as emulsifiable concentrates, are sprayed at different dosages onto the surface of the green parts of the plants at an application rate of 600 to 800 l of water per ha (converted). After the experimental plants have stood in the greenhouse for 3 to 4 weeks under optimum growth conditions, the activity of the compounds is scored. […] At the same application rate this compound of the invention causes no damage to the crop plant Oryza sativa (rice) and 20% damage to Triticum aestivum (wheat).

Digitaria sanguinalis [4] = assay: Weed plant herbicidal activity, post-emergence; assay type: in vivo; conditions: three-leaf stage, 80 g of active substance per hectare, scored after 3 to 4 weeks
Method: as §2

Matricaria inodora = assay: Weed plant herbicidal activity, post-emergence; assay type: in vivo; conditions: three-leaf stage, 80 g of active substance per hectare, scored after 3 to 4 weeks
Method: as §2

Pharbitis purpureum = assay: Weed plant herbicidal activity, post-emergence; assay type: in vivo; conditions: three-leaf stage, 80 g of active substance per hectare, scored after 3 to 4 weeks
Method: as §2

Veronica persica [5] = assay: Weed plant herbicidal activity, post-emergence; assay type: in vivo; conditions: three-leaf stage, 80 g of active substance per hectare, scored after 3 to 4 weeks
Method: as §2

Oryza sativa (rice) [6] = assay: Crop plant tolerance, post-emergence; assay type: in vivo; conditions: 80 g of active substance per hectare, 3 to 4 weeks
Method: as §2

[7] = system: Triticum aestivum (wheat); assay: Crop plant tolerance, post-emergence; assay type: in vivo; conditions: 80 g of active substance per hectare, 3 to 4 weeks
Method: as §2

Row | melting point | Structure (SMILES) | activity against Agropyrons repens (Agropyrons repens) | activity against Alopecurus myosuroides (Alopecurus myosuroides) | activity against Amaranthus retroflexus (Amaranthus retroflexus) | activity against Avena fatua (Avena fatua) | activity against Digitaria sanguinalis (Digitaria sanguinalis [1]) | activity against Galium aparine (Galium aparine) | activity against Lolium multiflorum (Lolium multiflorum) | activity against Setaria viridis (Setaria viridis) | activity against Sorghum halepense (Sorghum halepense) | activity against Veronica persica (Veronica persica [2]) | damage to the crop plant Oryza sativa (rice) (Oryza sativa (rice) [3]) | damage to the crop plant Zea mays (maize) (Zea mays (maize)) | activity against Chenopodium album (Chenopodium album) | activity against Digitaria sanguinalis (Digitaria sanguinalis [4]) | activity against Matricaria inodora (Matricaria inodora) | activity against Pharbitis purpureum (Pharbitis purpureum) | activity against Veronica persica (Veronica persica [5]) | damage to the crop plant Oryza sativa (rice) (Oryza sativa (rice) [6]) | damage to Triticum aestivum (wheat) [7]
1 | 94 to 96 °C | Cc1cnc(-n2cc(C(F)(F)F)cn2)nc1Oc1csc(C(F)(F)F)c1 [1.8, 5-methyl-2-(4-trifluoromethyl-1H-1-pyrazolyl)-4-(5-trifluoromethyl-3-thienyloxy)pyrimidine] | – | – | – | – | – | – | – | – | – | – | – | – | – | – | – | – | – | – | –
2 | 109 to 111 °C | COc1cnc(-n2cc(C(F)(F)F)cn2)nc1Oc1csc(C(F)(F)F)c1 [Example No. 1.22, 5-methoxy-2-(4-trifluoromethyl-1H-1-pyrazolyl)-4-(5-trifluoromethyl-3-thienyloxy)pyrimidine] | at least 80% | at least 80% | at least 80% | at least 80% | at least 80% | at least 80% | at least 80% | at least 80% | at least 80% | at least 80% | no damage | no damage | at least 90% | at least 90% | at least 90% | at least 90% | at least 90% | no damage | 20%
